According to patent US20210177814A1, “USE OF GUANABENZ OR DERIVATES THEREOF FOR THE TREATMENT OF TYPE I IFN-DEPENDENT PATHOLOGIES” (INSERM (Institut National de la Santé et de la Recherche …, priority 2018, published 2021):

Biological target: T1, hTLR7 (Homo sapiens, UniProt Q9NYK1)
T1 construct: expressed in transfected cells; host or cells: HEK-Blue (HEK 293) hTLR7 reporter cells
T1 sequence (Q9NYK1 27-1049): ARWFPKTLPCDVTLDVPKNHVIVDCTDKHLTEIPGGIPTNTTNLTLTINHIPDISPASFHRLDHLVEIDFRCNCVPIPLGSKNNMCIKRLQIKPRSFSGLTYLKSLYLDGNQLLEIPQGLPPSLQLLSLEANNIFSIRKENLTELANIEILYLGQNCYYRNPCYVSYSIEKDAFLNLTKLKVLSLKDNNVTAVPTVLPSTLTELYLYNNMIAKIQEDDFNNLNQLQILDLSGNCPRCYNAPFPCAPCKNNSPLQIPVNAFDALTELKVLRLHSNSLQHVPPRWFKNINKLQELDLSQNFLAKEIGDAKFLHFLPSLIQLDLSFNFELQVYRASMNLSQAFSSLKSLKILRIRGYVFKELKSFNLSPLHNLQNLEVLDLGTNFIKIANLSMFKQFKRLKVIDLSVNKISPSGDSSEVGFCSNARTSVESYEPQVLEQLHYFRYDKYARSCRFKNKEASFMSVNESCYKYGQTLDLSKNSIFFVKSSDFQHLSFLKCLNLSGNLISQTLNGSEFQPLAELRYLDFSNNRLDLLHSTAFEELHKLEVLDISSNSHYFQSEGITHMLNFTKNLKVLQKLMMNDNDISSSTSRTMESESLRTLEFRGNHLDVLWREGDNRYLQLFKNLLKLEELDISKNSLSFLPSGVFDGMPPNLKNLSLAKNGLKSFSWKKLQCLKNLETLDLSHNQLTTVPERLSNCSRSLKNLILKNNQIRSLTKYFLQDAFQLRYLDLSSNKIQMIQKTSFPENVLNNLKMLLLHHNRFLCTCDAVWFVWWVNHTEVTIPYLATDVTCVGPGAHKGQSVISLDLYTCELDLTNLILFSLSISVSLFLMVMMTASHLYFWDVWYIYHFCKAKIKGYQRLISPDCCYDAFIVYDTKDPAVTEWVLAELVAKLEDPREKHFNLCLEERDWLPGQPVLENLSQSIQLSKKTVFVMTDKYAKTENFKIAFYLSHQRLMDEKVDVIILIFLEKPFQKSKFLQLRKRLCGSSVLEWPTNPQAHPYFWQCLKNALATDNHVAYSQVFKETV
Assay: HEK-Blue hTLR7 SEAP reporter assay
Format: cell-based
Conditions: 5 μg/mL imiquimod, GBZ 50 μM
Description: FIG. 1: Guanabenz inhibits TLR3 and TLR9 activation in mouse Flt3-L DCs and human blood pDCs. A) Sorted bone marrow derived Flt3L-DCs were activated for 6 h with 10 μg/mL poly I:C LMW (TLR3 in DC1) or 1 μM ODN 1585 (TLR9 in pDCs). GBZ was added at 50 μM and inhibited IFN-β and Interleukin-6 (IL-6) production in activated cells. B) hTLR4, hTLR3, hTLR9 and hTLR7 expressed in the reporter HEK-Blue™ cells are inhibited by GBZ. TLR-expressing HEK-Blue™ cells were respectively activated with 100 ng/mL LPS, 10 μg/mL poly I:C LMW, 2.5 μM ODN 2006 or 5 μg/mL imiquimod, respectively. GBZ was added at 50 μM. TLR activity was measured indirectly through SEAP activity as absorbance at 405 nm. […] Protein concentration of IFN-α and TNF-α secreted were measured at the indicated time points or at 16 h. […]
Given the efficiency of GBZ on mouse TLR3 and TLR9, we turned to human TLRs, in order to extend the relevance of our observations. GBZ-mediated inhibition was first evaluated on NF-kB signaling by monitoring secreted alkaline phosphatase (SEAP) reporter levels in HEK-293 cells expressing TLR3, TLR4, TLR7, TLR9 (FIG. 1B). […] The functionality of the TLR9 transduction pathway was next evaluated by using phospho-flow detection of 40S ribosomal protein S6 (rpS6) phosphorylation, a well characterized early signaling event down-stream of TLR activation by LPS or viruses.

NC(N)=N/N=C/c1c(Cl)cccc1Cl [GBZ, 2-(2,6-dichlorobenzylidene)-hydrazinecarboximidamide]
TLR7-dependent activation of the SEAP reporter: inhibited
